Measured values as given in US20100261666A1, “COMPOSITIONS AND METHODS FOR THE TREATMENT OF MYOCARDIAL DYSFUNCTION ASSOCIATED WITH SIRS OR SEPSIS” (THE BOARD OF TRUSTEES OF THE UNIVERSITY OF ILLINOIS, priority 2009, published 2010).

Legend:
[1] = tested on: TNF-α; test: Real time PCR, left ventricular TNF-α mRNA expression; assay type: in vivo, rat; details: LPS infusion
Protocol: Total RNA was isolated from left ventricular tissue using the SV Total Isolation System (Promega Corp., Madison, Wis.). Isolation was performed according to manufacturer instructions and followed by DNAse treatment to eliminate residual genomic DNA contamination. RNA integrity was determined by loading 1.0 μg of total RNA isolate from each sample onto a 1.0% agarose gel and staining with ethidium bromide to visualize the 18 and 28s RNA bands. The amount of RNA recovered was determined using the Ribogreen RNA Quantification Kit (Molecular Probes, Eugene, Oreg.). […]
Specific primer sequences, GenBank accession numbers, Sequence Identifiers, and product sizes are disclosed in Table 5. […] For real-time PCRs, SYBR PCR Master Mix (Bio-Rad Laboratories, Hercules, Calif.) was used, and thermocycling and fluorescence detection was performed using a Stratagene Mx3000p real-time PCR machine.
After confirmation of primer efficiency and specificity, the concentrations of purified products generated by standard PCR were determined using Molecular Probe's Picogreen DNA quantification kit, and PCR products were serially diluted to obtain standards containing 10^1, 10^2, 10^3, 10^4, 10^5, and 10^6 copies of synthetic template. […]

[2] = tested on: ADA1; test: Real time PCR, left ventricular ADA1 mRNA expression; assay type: in vivo, rat
Protocol: Total RNA was isolated from left ventricular tissue using the SV Total Isolation System (Promega Corp., Madison, Wis.). Isolation was performed according to manufacturer instructions and followed by DNAse treatment to eliminate residual genomic DNA contamination. RNA integrity was determined by loading 1.0 μg of total RNA isolate from each sample onto a 1.0% agarose gel and staining with ethidium bromide to visualize the 18 and 28s RNA bands. The amount of RNA recovered was determined using the Ribogreen RNA Quantification Kit (Molecular Probes, Eugene, Oreg.). 1 μg of total RNA was reverse transcribed in a […] using random hexamer primers with enzyme and buffers supplied in the cDNA First Strand Synthesis kit (MRI Fermentas, Hanover, Md.). First strand cDNA was treated with ribonuclease H to remove residual RNA.
Real time PCR (qPCR) was performed to measure RNA transcripts for left ventricular TNF-α and ADA1. Three housekeeping genes were selected as follows to produce an intergroup correction factor for target transcripts: Cyclophilin A, hypoxanthine-guanine physphoribosyltransferase (HPRT), and β-actin. Primers were selected using Primer 3 software (Rosen and Skaletsky, Whitehead Institute for Biomedical Research) with the rat genomic sequences for TNF gene, ADA gene, HPRT gene, β-actin gene, and Cyclophilin gene as templates. BLAST (National Center for Biotechnology Information) searches were used to verify that the selected primers were specific for the designated target.
Specific primer sequences, GenBank accession numbers, Sequence Identifiers, and product sizes are disclosed in Table 5. Primers were used in a standard PCR with the 2× Master Mix PCR reagent (MRI Fermentas) and cDNA from the tissue of interest as a template. The thermocycling profile consisted of one cycle of 95° C. for 10 minutes, followed by 41 cycles of 95° C. for 1 minute, 61° C. for 1 minute, and 72° C. for 1 minute and a final cycle of 72° C. for 10 minutes. Products were run on a 1.0% agarose gel and stained with ethidium bromide to confirm that only one band was amplified and that no primer dimers were present. PCR products were then column-purified (QIAGEN, Valencia, Calif.) and sequenced to confirm target specificity. For real-time PCRs, SYBR PCR Master Mix (Bio-Rad Laboratories, Hercules, Calif.) was used, and thermocycling and fluorescence detection was performed using a Stratagene Mx3000p real-time PCR machine.
Standards were then amplified by real-time PCR, and standard curves were generated using Stratagene Mx3000P software. […]
A housekeeping gene was selected for normalization of the real-time PCR data for the TNF-α and ADA1 transcripts. Three potential gene (mRNA) products were analyzed for this purpose: CYC, β-actin and HPRT.

[3] = tested on: rat isolated hearts; test: Langendorff rat isolated heart procedure: left ventricular function and coronary flow; assay type: in vivo; details: for Coronary flow Baseline / Coronary flow 30 min / Coronary flow 60 min / Coronary flow 90 min / Coronary flow 120 min / Coronary flow 150 min: mean ± SEM
Protocol: Male Sprague Dawley, virus-free rats (Harlan) were used in each of the examples presented herein. After arrival and a brief acclimation (72 hours minimum), animals were randomized into control or experimental groups. The control and experimental protocols (Table 1) and experimental group treatments (Table 2) are described below.
Rat isolated heart experiments were performed via Langendorff method. […] CON hearts received vehicle (IP sterile water). […] Heparin was allowed to circulate for 60 seconds at which time a thoracotomy was performed to expose the heart. The heart was quickly removed, placed in ice cold Krebs-Ringers bicarbonate buffer (KRB, described below) and weighed. The ascending aorta was rapidly cannulated and the heart was attached, via the cannula, to the perfusion apparatus. The hearts were perfused with a modified KRB containing (102 mM NaCl, 4.75 mM KCl, 1.20 mM KH2PO4, 1.18 mM MgSO4, 22.75 mM NaHCO3, 11.50 mM Glucose, 4.96 mM Na-Pyruvate, 5.40 mM Na-Fumarate and 1 mM CaCl2), at a temperature of 37.0° C., and pH 7.4 as maintained by vigorous bubbling with 95%/5% O2/CO2.
At all times, hearts were perfused with KRB at a pressure of 72-78 mmHg set by the height of the water-jacketed reservoir. The left atrium of the heart was then removed, just above the left atrio-ventricular valve. A latex balloon was used to measure left ventricular pressure as an index of cardiac performance. The balloon was constructed by filling the reservoir tip of a latex condom with degassed water. PE-50 tubing, pre-filled with degassed water and attached to a stopcock/Hamilton screw-top syringe assembly, was flanged and placed into the tip of the condom. Surgical silk (5-0) was used to gather the condom tip around the flanged end of the tubing and form a seal, at which time the excess latex was removed.
The balloon/stopcock assembly was attached to a pressure transducer (Spectramed-Statham) and inserted into the left ventricle to record cardiac performance data via Windaq (DATAQ, CA). Two platinum electrodes, connected to a electrical stimulator (Grass Model 92C), were placed at the lateral edges of the right atria in order to pace the heart at 300 BPM using a voltage 10% greater than that required to capture rhythm. The volume in the latex balloon was increased to produce a left ventricular diastolic pressure (LVdiaP) of 10.0 mmHg.
The heart was then perfused normally for 30 minutes, a period designated as the equilibration phase. During this phase of perfusion hearts had to maintain a LVdiaP of 10.0±2.0 mmHg to be included in the study. At the end of thirty minutes, baseline measurements of coronary flow and left ventricular pressure were made. This time point was designated as 0 minutes. At this time, hearts receiving LPS (10 μg/mL/min) were infused via injection port/stop cock assembly, into the KRB perfusion stream, just above the aortic cannula for a total infusion time of 60 minutes. Hearts not receiving LPS were infused with vehicle (sterile water, 1.25% coronary flow (mL)·min). At 60 minutes, infusion was halted and normal KRB perfusion continued for 90 minutes (total experimental time post-equilibration=150 minutes).
Measurements of coronary flow and left ventricular pressure were taken every 30 minutes starting at 0 minutes. At the termination of the experiment, the left ventricle was rapidly excised from the whole heart, flash frozen in liquid nitrogen and stored at −80.0° C. for further analysis.
Statistical analysis was performed on data generated from these experimental protocols using a one-way analysis of variance (one-way ANOVA) with pair wise comparisons (Fisher Least Significant Difference test (LSD)). Data is presented herein as mean±standard error of the mean (SEM).
The Fisher LSD was used to determine whether 30 and 150 min values differed from baseline values. In addition, changes from baseline values (e.g., 30 or 150 minute value−respective baseline value) were compared among groups.

[4] = biological target: ADA (Homo sapiens, UniProt P00813); details: cited from earlier work
Chain of ADA (P00813 whole entry, species assumed): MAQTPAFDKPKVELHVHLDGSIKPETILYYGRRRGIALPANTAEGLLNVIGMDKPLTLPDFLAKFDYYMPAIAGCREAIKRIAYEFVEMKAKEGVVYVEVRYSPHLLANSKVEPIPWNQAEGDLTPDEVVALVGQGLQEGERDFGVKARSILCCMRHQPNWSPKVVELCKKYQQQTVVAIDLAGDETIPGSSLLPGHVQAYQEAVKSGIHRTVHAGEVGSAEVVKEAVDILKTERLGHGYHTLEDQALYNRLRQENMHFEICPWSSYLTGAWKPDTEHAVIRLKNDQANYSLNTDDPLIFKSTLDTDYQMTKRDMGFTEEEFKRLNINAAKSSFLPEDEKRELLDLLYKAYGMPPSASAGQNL

SMILES: Oc1ncnc2[nH]ncc12 [ALO, allopurinol]
- left ventricular TNF-α mRNA expression compared to LPS hearts [1]: significantly lower
- left ventricular ADA1 mRNA expression (copy numbers) compared to CON and LPS hearts ([2]; LPS infusion): No significant differences
- left ventricular ADA1 mRNA expression (copy numbers) compared to CON and LPS hearts ([2]; vehicle infusion): No significant differences
- Coronary flow Baseline ([3]; LPS infusion 10 μg/mL/min (-LPS group)): 24.1 ± 1.3 mL/min
- Coronary flow 30 min ([3]; LPS infusion (-LPS group)): 24.2 ± 1.1 mL/min
- Coronary flow 60 min ([3]; LPS infusion (-LPS group)): 24.7 ± 1.4 mL/min
- Coronary flow 90 min ([3]; LPS infusion (-LPS group)): 24.5 ± 1.4 mL/min
- Coronary flow 120 min ([3]; LPS infusion (-LPS group)): 23.4 ± 1.7 mL/min
- Coronary flow 150 min ([3]; LPS infusion (-LPS group)): 22.5 ± 1.7 mL/min
- +dP/dt compared to respective baseline ([3]; LPS infusion, 30 minutes): significantly greater
- LV developed pressure compared to respective baseline ([3]; LPS infusion, 30 minutes): significantly greater
- LV diastolic pressure compared to respective baseline ([3]; LPS infusion, 30 minutes): significantly decreased
- increase in LV developed pressure compared to LPS group ([3]; LPS infusion, 30 minutes): of a similar magnitude
- increase in LV systolic pressure compared to LPS group ([3]; LPS infusion, 30 minutes): of a similar magnitude
- increase in −dP/dt compared to LPS group ([3]; LPS infusion, 30 minutes): similar
- +dP/dt compared to LPS hearts ([3]; LPS infusion, 150 minutes): did not statistically change
- +dP/dt compared to respective baseline ([3]; LPS infusion, 150 minutes): significantly decreased
- LV developed pressure compared to LPS hearts ([3]; LPS infusion, 150 minutes): of a similar magnitude
- LV developed pressure compared to respective baseline ([3]; LPS infusion, 150 minutes): significantly decreased
- LV diastolic pressure (LPS-induced increase) compared to LPS hearts ([3]; LPS infusion, 150 minutes): attenuation
- LV systolic pressure compared to respective baseline ([3]; LPS infusion, 150 minutes): significantly decreased
- −dP/dt compared to LPS alone / among groups ([3]; LPS infusion, 150 minutes): did not significantly affect
- −dP/dt compared to respective baseline ([3]; LPS infusion, 150 minutes): significantly decreased
- Coronary flow 30 min ([3]; vehicle infusion (-CON group)): 25.9 ± 1.8 mL/min
- Coronary flow 60 min ([3]; vehicle infusion (-CON group)): 25.1 ± 1.9 mL/min
- Coronary flow 90 min ([3]; vehicle infusion (-CON group)): 24.7 ± 1.9 mL/min
- Coronary flow 120 min ([3]; vehicle infusion (-CON group)): 24.1 ± 1.6 mL/min
- Coronary flow 150 min ([3]; vehicle infusion (-CON group)): 22.6 ± 1.4 mL/min
- Coronary flow Baseline ([3]; vehicle infusion (-CON group)): 25.4 ± 2.1 mL/min
- LV diastolic pressure compared to respective baseline ([3]; vehicle infusion, 30 minutes): No changes
- LV developed pressure compared to respective baseline ([3]; vehicle infusion, 150 minutes): No changes
- LV diastolic pressure compared to respective baseline ([3]; vehicle infusion, 150 minutes): remained unchanged
- LV systolic pressure compared to respective baseline ([3]; vehicle infusion, 150 minutes): no change
- −dP/dt compared to respective baseline ([3]; vehicle infusion, 150 minutes): remained unchanged

SMILES: OC[C@H]1O[C@@H](n2cnc3c2N=CNCC3O)C(O)[C@H]1O (some centres unmarked) [coformycin]
- Ki [4]: 0.01 nM
